# According to patent US20110118397A1, “RUBBER COMPOSITION” (BRIDGESTONE CORPORATION, priority 2008, published 2011):
# Legend:
# [1] = octanol/water partition coefficient (log P) by high-performance liquid chromatography, JIS Z 7260-117 (2006)
# Source text: (§1) In the present invention (including examples and the like described later), the octanol/water partition coefficient (log P) described above can be measured by a high-performance liquid chromatography according to JIS Z 7260-117 (2006), and it is defined by the following equation:
# (§2) log P=log(^┌Co┘/^┌Cw┘) • Co: concentration of an examined substance in a 1-octanol layer • Cw: concentration of an examined substance in an aqueous layer
# (§3) The octanol/water partition coefficients (log P) of the vulcanization accelerators obtained in the following respective production examples were measured by a high-performance liquid chromatography according to JIS Z 7260-117 (2006). A high-performance liquid chromatography manufactured by Shimadzu Corporation was used.
# Source text for physchem: as §1, §2, §3
melting point [°C],chromatographic logP [1],Structure (SMILES),chromatographic logP (physchem)
60 to 61,4.9,CCN(Sc1nc2ccccc2s1)C(C)(C)C [N-ethyl-N-t-butylbenzothiazole-2-sulfenamide],–
–,–,CC(C)N(Sc1nc2ccccc2s1)C(C)(C)C [N-i-propyl-N-t-butylbenzothiazole-2-sulfenamide],5.1
56 to 58,4.5,CN(Sc1nc2ccccc2s1)C(C)(C)C [N-methyl-N-t-butylbenzothiazole-2-sulfenamide],–
55 to 56,5.8,CCCCN(Sc1nc2ccccc2s1)C(C)(C)C [N-n-butyl-N-t-butylbenzothiazole-2-sulfenamide],–
–,5.3,CCCN(Sc1nc2ccccc2s1)C(C)(C)C [N-n-propyl-N-t-butylbenzothiazole-2-sulfenamide],–
